Test results from ChEMBL document CHEMBL3045223, “Synthesis, nematicidal and antimicrobial properties of Bis-[4-methoxy-3-[3-(4-fluorophenyl)-6-(4-methylphenyl)-2(aryl)-tetrahydro-2H-pyrazolo[3,4-d]thiazol-5-yl]phenyl]methanes” (2009).
Values after ≈ are worked out from the molar mass of the structure shown. Active and inactive are the calls of the source. No cut-off for these calls is given here.

Columns and labels:
Assay type in all cases: functional
[1] = test system: Pseudomonas aeruginosa; test: Antibacterial activity against Pseudomonas aeruginosa MTCC 741 assessed as growth arrest at 37 degC for 24 hr; conditions: MTCC 741, 24 h
[2] = test system: Lysinibacillus sphaericus; test: Antibacterial activity against Lysinibacillus sphaericus MTCC 11 assessed as inhibition zones at 300 ug/disk at 37 degC for 24 hr; conditions: MTCC 11, 24 h, read-out: IZ
[3] = test system: Klebsiella aerogenes; test: Antibacterial activity against Enterobacter aerogenes MTCC 39 assessed as growth arrest at 37 degC for 24 hr; conditions: MTCC 39, 24 h
[4] = test system: Ditylenchus myceliophagus; test: Nematicidal activity against Ditylenchus myceliophagus assessed as immobility; conditions: read-out: LD50 (the source's name)
[5] = test system: Staphylococcus aureus; test: Antibacterial activity against Staphylococcus aureus MTCC 96 assessed as growth arrest at 37 degC for 24 hr; conditions: MTCC 96, 24 h
[6] = test system: Staphylococcus aureus; test: Antibacterial activity against Staphylococcus aureus MTCC 96 assessed as inhibition zones at 300 ug/disc at 37 degC for 24 hr; conditions: MTCC 96, 24 h, read-out: IZ
[7] = test system: Trichophyton rubrum; test: Antifungal activity against Trichophyton rubrum IFO 9185 assessed as growth inhibition at 300 ug/disk at 37 degC for 48 hr; conditions: for zone of inhibition at 300 µg/disc: IFO 9185, 48 h, read-out: IZ
[8] = test system: Candida albicans; test: Antifungal activity against Candida albicans ATCC 10231 assessed as growth inhibition at 37 degC for 48 hr
[9] = test system: Bacillus subtilis; test: Antibacterial activity against Bacillus subtilis MTCC 441 assessed as growth arrest at 37 degC for 24 hr; conditions: MTCC 441, 24 h
[10] = test system: Klebsiella aerogenes; test: Antibacterial activity against Enterobacter aerogenes MTCC 39 assessed as inhibition zones at 300 ug/disk at 37 degC for 24 hr; conditions: MTCC 39, 24 h, read-out: IZ
[11] = test system: Chromobacterium violaceum; test: Antibacterial activity against Chromobacterium violaceum MTCC 2656 assessed as growth arrest at 37 degC for 24 hr; conditions: MTCC 2656, 24 h
[12] = test system: Chromobacterium violaceum; test: Antibacterial activity against Chromobacterium violaceum MTCC 2656 assessed as inhibition zones at 300 ug/disk at 37 degC for 24 hr; conditions: MTCC 2656, 24 h, read-out: IZ
[13] = test system: Candida albicans; test: Antifungal activity against Candida albicans ATCC 10231 assessed as growth inhibition at 300 ug/disk at 37 degC for 48 hr
[14] = test system: Aspergillus fumigatus; test: Antifungal activity against Aspergillus fumigatus HIC 6094 assessed as growth inhibition at 300 ug/disc at 37 degC for 48 hr
[15] = test system: Bacillus subtilis; test: Antibacterial activity against Bacillus subtilis MTCC 441 assessed as inhibition zones at 300 ug/disk at 37 degC for 24 hr; conditions: MTCC 441, 24 h, read-out: IZ
[16] = test system: Trichophyton mentagrophytes; test: Antifungal activity against Trichophyton mentagrophytes IFO 40996 assessed as growth inhibition at 300 ug/disc at 37 degC for 48 hr
[17] = test system: Trichophyton rubrum; test: Antifungal activity against Trichophyton rubrum IFO 9185 assessed as growth inhibition at 37 degC for 48 hr; conditions: IFO 9185, 48 h
[18] = test system: Pseudomonas aeruginosa; test: Antibacterial activity against Pseudomonas aeruginosa MTCC 741 assessed as inhibition zones at 300 ug/disk at 37 degC for 24 hr; conditions: MTCC 741, 24 h, read-out: IZ
[19] = test system: Aspergillus fumigatus; test: Antifungal activity against Aspergillus fumigatus HIC 6094 assessed as growth inhibition at 37 degC for 48 hr; conditions: HIC 6094, 48 h
[20] = test system: Lysinibacillus sphaericus; test: Antibacterial activity against Lysinibacillus sphaericus MTCC 11 assessed as growth arrest at 37 degC for 24 hr; conditions: MTCC 11, 24 h
[21] = test system: Caenorhabditis elegans; test: Nematicidal activity against Caenorhabditis elegans assessed as immobility; conditions: read-out: LD50 (the source's name)
[22] = test system: Trichophyton mentagrophytes; test: Antifungal activity against Trichophyton mentagrophytes IFO 40996 assessed as growth inhibition at 37 degC for 48 hr; conditions: IFO 40996, 48 h

Compound | MBC [1] | MIC [1] | zone of inhibition at 300 µg/disc [2] | MBC [3] | MIC [3] | LC50 [4] | MBC [5] | MIC [5] | zone of inhibition at 300 µg/disc [6] | MBC [9] | MIC [9] | zone of inhibition at 300 µg/disc [10] | MBC [11] | MIC [11] | zone of inhibition at 300 µg/disc [12] | zone of inhibition at 300 µg/disc [15] | MBC [17] | MIC [17] | zone of inhibition at 300 µg/disc [18] | LC50 [21] | also measured
COc1ccc(Cc2ccc(OC)c(C3SC4C(=NN(c5ccccc5)C4c4ccc(F)cc4)N3c3ccc(C)cc3)c2)cc1C1SC2C(=NN(c3ccccc3)C2c2ccc(F)cc2)N1c1ccc(C)cc1 (stereo not drawn) | 50 µg/mL (≈ 49.8 µM) | 12.5 µg/mL (≈ 12.5 µM) | 16 mm | 25 µg/mL (≈ 24.9 µM) | 12.5 µg/mL (≈ 12.5 µM) | 850 µg/mL (≈ 847 µM) | 12.5 µg/mL (≈ 12.5 µM) | 12.5 µg/mL (≈ 12.5 µM) | 27 mm | 25 µg/mL (≈ 24.9 µM) | 12.5 µg/mL (≈ 12.5 µM) | 17 mm | 25 µg/mL (≈ 24.9 µM) | 25 µg/mL (≈ 24.9 µM) | 19 mm | 14 mm | 50 µg/mL (≈ 49.8 µM) | 25 µg/mL (≈ 24.9 µM) | 18 mm | 670 µg/mL (≈ 668 µM) | inhibition zone (IZ) [7]: inactive; MBC [8]: inactive; MIC [8]: inactive; zone of inhibition at 300 µg/disc ([13]; ATCC 10231, 48 h, read-out: IZ): 11 mm; zone of inhibition at 300 µg/disc ([14]; HIC 6094, 48 h, read-out: IZ): 10 mm; zone of inhibition at 300 µg/disc ([16]; IFO 40996, 48 h, read-out: IZ): 9 mm; MBC [19]: 25 µg/mL (≈ 24.9 µM); MIC [19]: 25 µg/mL (≈ 24.9 µM); MBC [20]: 50 µg/mL (≈ 49.8 µM); MIC [20]: 25 µg/mL (≈ 24.9 µM); MBC [22]: 25 µg/mL (≈ 24.9 µM); MIC [22]: 25 µg/mL (≈ 24.9 µM)
COc1ccc(Cc2ccc(OC)c(C3SC4C(=NN(c5ccccc5)C4c4ccc(F)cc4)N3c3ccc(Cl)cc3)c2)cc1C1SC2C(=NN(c3ccccc3)C2c2ccc(F)cc2)N1c1ccc(Cl)cc1 (stereo not drawn) | 12.5 µg/mL (≈ 12 µM) | 6.25 µg/mL (≈ 5.99 µM) | 21 mm | 25 µg/mL (≈ 23.9 µM) | 12.5 µg/mL (≈ 12 µM) | 810 µg/mL (≈ 776 µM) | 50 µg/mL (≈ 47.9 µM) | 25 µg/mL (≈ 23.9 µM) | 20 mm | 25 µg/mL (≈ 23.9 µM) | 6.25 µg/mL (≈ 5.99 µM) | 22 mm | 25 µg/mL (≈ 23.9 µM) | 12.5 µg/mL (≈ 12 µM) | 20 mm | 18 mm | 12.5 µg/mL (≈ 12 µM) | 12.5 µg/mL (≈ 12 µM) | 19 mm | 650 µg/mL (≈ 623 µM) | zone of inhibition at 300 µg/disc [7]: 17 mm; MBC ([8]; ATCC 10231, 48 h): 6.25 µg/mL (≈ 5.99 µM); MIC ([8]; ATCC 10231, 48 h): 6.25 µg/mL (≈ 5.99 µM); inhibition zone (IZ) [13]: inactive; inhibition zone (IZ) [14]: inactive; inhibition zone (IZ) [16]: inactive; MBC [19]: 25 µg/mL (≈ 23.9 µM); MIC [19]: 12.5 µg/mL (≈ 12 µM); MBC [20]: 50 µg/mL (≈ 47.9 µM); MIC [20]: 12.5 µg/mL (≈ 12 µM); MBC [22]: 12.5 µg/mL (≈ 12 µM); MIC [22]: 6.25 µg/mL (≈ 5.99 µM)
COc1ccc(Cc2ccc(OC)c(C3SC4C(=NN(c5ccc(Cl)cc5)C4c4ccc(F)cc4)N3c3ccc(Cl)cc3)c2)cc1C1SC2C(=NN(c3ccc(Cl)cc3)C2c2ccc(F)cc2)N1c1ccc(Cl)cc1 (stereo not drawn) | 50 µg/mL (≈ 44.9 µM) | 50 µg/mL (≈ 44.9 µM) | 19 mm | 12.5 µg/mL (≈ 11.2 µM) | 12.5 µg/mL (≈ 11.2 µM) | 290 µg/mL (≈ 261 µM) | 50 µg/mL (≈ 44.9 µM) | 12.5 µg/mL (≈ 11.2 µM) | 22 mm | 25 µg/mL (≈ 22.5 µM) | 12.5 µg/mL (≈ 11.2 µM) | 19 mm | 50 µg/mL (≈ 44.9 µM) | 25 µg/mL (≈ 22.5 µM) | 18 mm | 11 mm | 12.5 µg/mL (≈ 11.2 µM) | 12.5 µg/mL (≈ 11.2 µM) | 18 mm | 380 µg/mL (≈ 341 µM) | zone of inhibition at 300 µg/disc [7]: 15 mm; MBC ([8]; ATCC 10231, 48 h): 12.5 µg/mL (≈ 11.2 µM); MIC ([8]; ATCC 10231, 48 h): 12.5 µg/mL (≈ 11.2 µM); inhibition zone (IZ) [13]: inactive; inhibition zone (IZ) [14]: inactive; inhibition zone (IZ) [16]: inactive; MBC [19]: 25 µg/mL (≈ 22.5 µM); MIC [19]: 25 µg/mL (≈ 22.5 µM); MBC [20]: 25 µg/mL (≈ 22.5 µM); MIC [20]: 6.25 µg/mL (≈ 5.62 µM); MBC [22]: 50 µg/mL (≈ 44.9 µM); MIC [22]: 25 µg/mL (≈ 22.5 µM)
CNC(=O)O/N=C(\SC)C(=O)N(C)C [OXAMYL] |  |  |  |  |  | 150 µg/mL (≈ 684 µM) |  |  |  |  |  |  |  |  |  |  |  |  |  | 180 µg/mL (≈ 821 µM) | 
